Source: patent US8946478B2, “Benzamide derivative with anticancer activity and preparation method and use thereof” (Zhejiang Hisun Pharmaceutical Co., Ltd., priority 2010, dated 2015)

Tests used:
18 tumor cell strains = assay: In vitro efficacy screening, summary over the tumor cell strains; format: cell-based, human; details: in vitro screening; for inhibitory effects on tumor cell proliferation (in words): BSI-201 as positive drug
Description: (§1) Human colon cancer cell strains (Colo205 and HCT-116), human breast cancer cell strains (MCF-7 and MDA-MB435), human lung cancer cell strains (A549, 95D and NCI460), human ovarian cancer cell strains (OVCAR-5, OVCAR-8, HO8910 and SKOV-3), human leukemia (HL-60 and K562), human prostate cancer (DU145 and BXPC-3), human uterine cancer (Hela), human pancreatic cancer (PANC-1), human hepatoma (HepG 2) were all obtained from ATCC. Colo205, HL-60, K562 cells were cultured in RPMI 1640 containing 2 mM/L glutamine, 10% FBS, 1.0 mM sodium pyruvate. HCT-116, MCF-7, A549, 95D, HO8910, NCI460, OVCAR-5, OVCAR-8, DU145, BXPC-3, Hela, PANC-1, HepG2 cells were cultured in DMEM containing 2 mM/L glutamine, 10% FBS. MDA-MB435 cells were cultured in L-15 containing 2 mM/L glutamine, 10% FBS. SKOV-3 cells were cultured in McCoy's containing 2 mM/L glutamine, 10% FBS. Colo205, HL-60 and K562 cells were seeded in 96-well plates, 150 μL/well and 8000 cells/well, and the 96-well plates were pre-incubated in an incubator at 37° C. with 5% CO2, 100% relative humidity for 24 hours. HCT-116, MCF-7, NCI460, OVCAR-5, OVCAR-8, Hela, HepG 2 and MDA-MB435 cells were seeded in 96-well plates, 5000 cells/well; A549, 95D, HO8910, DU145, BXPC-3, PANC-1 and SKOV-3 cells were seeded in 96-well plates, 10000 cells/well, and the 96-well plates were pre-incubated in an incubator at 37° C. with 5% CO2, 100% relative humidity for 24 hours, to allow the cells to adhere.
(§2) 50 μL of pre-cooled 50% (mass/volume) TCA was added into the time zero control wells for each cell strain to fix the cells. To other wells, 50 μL of various concentrations of compounds were added, and maintained for 48 h, wherein each drug concentration was in triplicate, and there were blank control wells (cell culture medium without cells), drug-free control wells (with no drugs but the same volume of complete medium) and positive drug BSI-201 control wells, and the plates were incubated in an incubator at 37° C. with 5% CO2, full humidity (100% relative humidity) for 48 hours
(§3) 50 μL pre-cooled 50% (mass/volume) TCA was added onto the surface of the culture medium to fix the cells, which was then placed at 4° C. for 1 h. The supernatant was removed and each well was washed with deionized water for 5 times to remove TCA, serum proteins, etc. After dried in the air, about 100 μL enough amount of 0.4% SRB (formulated with 1% acetic acid) was added into each well, and was placed at room temperature for 20 to 30 min. Liquid in each well was discarded and each well was rapidly washed with 1% acetic acid for five times, to remove unbound dye until the unbound dye was completely rinsed clean. After dried in the air until the moisture was invisible, each well was added 200 μL Tris base to dissolve, shaken on a plate oscillator for 5 min or mixed by beating up and down with a pipette tip, and then measured on the multi-function instruction (M5 Detection System, MD Group Ltd.) with a detection wavelength of 515 nm, zero adjusted with 690 nm blank control.
(§4) The dose-response curve was plotted by XL-fit to determine the GI50 value.

[1] = test system: human ovarian cancer cell strain OVCAR-5; assay: In vitro SRB tumor cell growth inhibition (GI50); format: cell-based; details: OVCAR-5 cells, 48 h
Description: as §1, §2, §3, §4

[2] = test system: human ovarian cancer cell strain HO8910; assay: In vitro SRB tumor cell growth inhibition (GI50); format: cell-based; details: HO-8910, HO8910 cells, 48 h
Description: as §1, §2, §3, §4

[3] = test system: human colon cancer cell strain Colo205; assay: In vitro SRB tumor cell growth inhibition (GI50); format: cell-based; details: Colo 205 cells, 48 h
Description: as §1, §2, §3, §4

human leukemia HL-60 = assay: In vitro SRB tumor cell growth inhibition (GI50); format: cell-based; details: Homo sapiens, HL-60, 48 h, HL-60 cells
Description: as §1, §2, §3, §4

[4] = test system: human prostate cancer BXPC-3; assay: In vitro SRB tumor cell growth inhibition (GI50); format: cell-based; details: BXPC-3 cells, 48 h
Description: as §1, §2, §3, §4

[5] = test system: human lung cancer cell strain 95D; assay: In vitro SRB tumor cell growth inhibition (GI50); format: cell-based; details: Homo sapiens, 95-D, 48 h, 95D cells
Description: as §1, §2, §3, §4

[6] = test system: human ovarian cancer cell strain SKOV-3; assay: In vitro SRB tumor cell growth inhibition (GI50); format: cell-based; details: SK-OV-3, SKOV-3 cells, 48 h
Description: as §1, §2, §3, §4

human hepatoma HepG 2 = assay: In vitro SRB tumor cell growth inhibition (GI50); format: cell-based; details: HepG2, HepG 2 cells, 48 h
Description: as §1, §2, §3, §4

[7] = test system: human lung cancer cell strain NCI-460; assay: In vitro SRB tumor cell growth inhibition (GI50); format: cell-based; details: Homo sapiens, NCI-460, 48 h, NCI-460 cells
Description: as §1, §2, §3, §4

[8] = test system: human prostate cancer DU145; assay: In vitro SRB tumor cell growth inhibition (GI50); format: cell-based; details: Homo sapiens, DU-145, 48 h, DU145 cells
Description: as §1, §2, §3, §4

[9] = test system: human pancreatic cancer PANC-1; assay: In vitro SRB tumor cell growth inhibition (GI50); format: cell-based; details: Homo sapiens, PANC-1, 48 h, PANC-1 cells
Description: as §1, §2, §3, §4

[10] = test system: human lung cancer cell strain A549; assay: In vitro SRB tumor cell growth inhibition (GI50); format: cell-based; details: A549 cells, 48 h
Description: as §1, §2, §3, §4

[11] = test system: human breast cancer cell strain MDA-MB435; assay: In vitro SRB tumor cell growth inhibition (GI50); format: cell-based; details: Homo sapiens, MDA-MB-435, 48 h, MDA-MB435 cells
Description: as §1, §2, §3, §4

human leukemia K562 = assay: In vitro SRB tumor cell growth inhibition (GI50); format: cell-based; details: Homo sapiens, K562, 48 h, K562 cells
Description: as §1, §2, §3, §4

[12] = test system: human uterine cancer Hela; assay: In vitro SRB tumor cell growth inhibition (GI50); format: cell-based; details: Homo sapiens, HeLa, 48 h, Hela cells
Description: as §1, §2, §3, §4

[13] = test system: human breast cancer cell strain MCF-7; assay: In vitro SRB tumor cell growth inhibition (GI50); format: cell-based; details: Homo sapiens, MCF7, 48 h, MCF-7 cells
Description: as §1, §2, §3, §4

[14] = test system: human ovarian cancer cell strain OVCAR-8; assay: In vitro SRB tumor cell growth inhibition (GI50); format: cell-based; details: OVCAR-8 cells
Description: as §1, §2, §3, §4

[15] = test system: human colon cancer cell strain HCT-116; assay: In vitro SRB tumor cell growth inhibition (GI50); format: cell-based; details: Homo sapiens, HCT-116, 48 h, HCT-116 cells
Description: as §1, §2, §3, §4

Row | SMILES | efficacy in inhibition of tumor cell proliferation, graded in words against I-1 (18 tumor cell strains) | inhibitory effects on tumor cell proliferation (in words) (18 tumor cell strains) | GI50 [1] | GI50 [2] | GI50 [3] | GI50 (human leukemia HL-60) | GI50 [4] | GI50 [5] | GI50 [6] | GI50 (human hepatoma HepG 2) | GI50 [7] | GI50 [8] | GI50 [9] | GI50 [10] | GI50 [11] | GI50 (human leukemia K562) | GI50 [12] | GI50 [13] | GI50 ([14]; Homo sapiens, OVCAR-8, 48 h) | GI50 [15] | also measured
1 | C#Cc1ccc(C(=O)NCC)cc1[N+](=O)[O-] [Compound I-17, N-ethyl-4-ethynyl-3-nitrobenzamide] | slightly lower than that of I-1 | have inhibitory effects on tumor cell proliferation | 16.1 µM | 3.34 µM | 3.21 µM | 2.62 µM | 4.79 µM | 10.3 µM | 8.4 µM | 5.85 µM | 14 µM | 2.99 µM | 12.4 µM | 12.2 µM | 2.76 µM | 2.59 µM | 4.43 µM | 10.6 µM | 4.6 µM | 5.06 µM | –
2 | C#Cc1ccc(C(=O)N(CC)CC)cc1[N+](=O)[O-] [Compound I-14, N,N-diethyl-4-ethynyl-3-nitrobenzamide] | slightly lower than that of I-1 | have inhibitory effects on tumor cell proliferation | 20.9 µM | 5 µM | 2.79 µM | 1.99 µM | 4.9 µM | 16.8 µM | 10.3 µM | 4.27 µM | 20.9 µM | 4.17 µM | 19.9 µM | 17.6 µM | 1.01 µM | 4.52 µM | 6.7 µM | 20.1 µM | 3.64 µM | 11.2 µM | –
3 | C#Cc1ccc(C(=O)N2CCCCC2)cc1[N+](=O)[O-] [Compound I-21, (4-ethynyl-3-nitrophenyl)(piperidin-1-yl)ketone] | slightly lower than that of I-1 | have inhibitory effects on tumor cell proliferation | 17.5 µM | 4.34 µM | 1.52 µM | 2.87 µM | 3.91 µM | 14.5 µM | 22.5 µM | 16 µM | 5.86 µM | 2.24 µM | 12.5 µM | 17.9 µM | 5.86 µM | 1.77 µM | 4.17 µM | 16.1 µM | 1.64 µM | 8.44 µM | –
4 | C#Cc1ccc(C(=O)N2CCCC2)cc1[N+](=O)[O-] [Compound I-20, (4-ethynyl-3-nitrophenyl)(pyrrolidin-1-yl)ketone] | slightly lower than that of I-1 | have inhibitory effects on tumor cell proliferation | 20.3 µM | 4.85 µM | 2.61 µM | 2.24 µM | 3.35 µM | 15.1 µM | 9.91 µM | 5.54 µM | 19.9 µM | 4.99 µM | 7.64 µM | 17.3 µM | 8.49 µM | 4.35 µM | 8.98 µM | 20.6 µM | 4.01 µM | 9.99 µM | –
5 | C#Cc1ccc(C(=O)N2CCN(C)CC2)cc1[N+](=O)[O-] [Compound I-24, (4-ethynyl-3-nitrophenyl)(4-methylpiperazin-1-yl)ketone] | slightly lower than that of I-1 | have inhibitory effects on tumor cell proliferation | 35.6 µM | 10.2 µM | 10.9 µM | 2.47 µM | 10.2 µM | 25.8 µM | 9.77 µM | 7.12 µM | 31.1 µM | 6.17 µM | 24.3 µM | 30.1 µM | 14.5 µM | 8.03 µM | 10.1 µM | 21.5 µM | – | 8.62 µM | GI50 ([14]; 48 h): 8.92 µM
6 | C#Cc1ccc(C(=O)NC(=O)OC)cc1[N+](=O)[O-] [Compound I-2, N-methoxycarbonyl-4-ethynyl-3-nitrobenzamide] | slightly lower than that of I-1 | have inhibitory effects on tumor cell proliferation | 4.24 µM | 3.44 µM | 7.03 µM | 2.02 µM | 7.42 µM | 3.62 µM | 3.81 µM | 11.3 µM | 33.8 µM | 3.31 µM | 13.7 µM | 8.04 µM | 11.7 µM | 2.8 µM | 7.1 µM | 2.08 µM | 14.1 µM | – | –
